For the assay, the target named is T1, recombinant tau oligomers (TauO) (Homo sapiens, UniProt P10636).
T1 construct: made in house
In words: Western blot of recombinant tau oligomers with and without compounds. The format is biochemical. Particulars: curcumin 5× and 10×, oligomerization conditions. The method, then:
Pre-cast NuPAGE 4-12% Bis-Tris Gels for SDS-PAGE (Introvigen) were loaded with 3 μg of recombinant tau for each sample per well along with molecular weight marker. After being separated by electrophoresis, proteins were transferred to nitrocellulose membranes. Membranes were then blocked with 10% nonfat milk in Tris-buffered saline with very low tween 0.01% (TBS-T) overnight at 4° C. The next day membranes were probed with T22 (1:250) for tau oligomers and tau5 (1:10000) for total tau, diluted in 5% nonfat milk for 1 hour at RT. Membranes were then incubated with horseradish peroxidase-conjugated IgG anti-rabbit (1:10000) and anti-mouse (1:10000) secondary antibodies to detect, T22 and Tau5, respectively. ECL plus (GE Healthcare) was used for signal detection. Densitometric analysis of each band was quantified using Image J and analyzed by one-way ANOVA.
Recombinant tau protein (tau-441 (2N4R) MW 45.9 kDa) was expressed and purified as described (Margittai and Langen 2004, Margittai and Langen 2006). The tau pellet was treated with 8M urea followed by overnight dialysis against 1× phosphate-buffered saline (PBS) pH 7.4. Tau concentration was measured using bicinchoninic acid protein assay (Micro BCA kit, Pierce) and normalized to 1 mg/ml by adding 1× PBS. Aliquots of tau monomer in PBS were stored at −20° C. […]

T1 sequence (P10636 1-441 isoform P10636-8): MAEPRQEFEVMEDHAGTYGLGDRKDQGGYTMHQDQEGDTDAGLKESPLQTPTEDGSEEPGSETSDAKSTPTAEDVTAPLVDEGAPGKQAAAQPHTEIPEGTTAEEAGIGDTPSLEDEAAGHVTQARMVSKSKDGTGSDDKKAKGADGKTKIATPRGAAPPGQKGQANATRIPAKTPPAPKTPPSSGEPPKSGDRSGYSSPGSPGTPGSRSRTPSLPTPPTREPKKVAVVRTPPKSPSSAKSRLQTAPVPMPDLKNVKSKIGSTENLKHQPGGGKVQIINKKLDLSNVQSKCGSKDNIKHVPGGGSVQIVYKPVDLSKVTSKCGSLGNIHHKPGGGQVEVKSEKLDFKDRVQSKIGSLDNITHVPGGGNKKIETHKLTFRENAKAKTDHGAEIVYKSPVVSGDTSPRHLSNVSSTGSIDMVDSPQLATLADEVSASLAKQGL

Turning to `COc1cc(/C=C/C(=O)CC(=O)/C=C/c2ccc(O)c(OC)c2)ccc1O` [curcumin], the “aggregation state of preformed tau oligomers, Western blot (T22, Tau 5, Tau 13)” value was “promoting the formation of larger tau aggregates”. Also, the “aggregation state of preformed tau oligomers, Western blot (T22, Tau 5, Tau 13)” value (listed as Curcumin) is recorded as “alters the aggregation states of preformed tau oligomers”.

The values are drawn from patent publication US12391657B2, “Small molecules that bind and/or modulate differentforms of tau oligomers” (The Board of Regents of the University of Texas System, priority 2019, dated 2025).
